Assay results published in ChEMBL document CHEMBL1201861, “Genomics of Drug Sensitity in Cancer screening data, Wellcome Trust Sanger Institute”.

Experiments:
Experiment in all cases: cells
Assay type in all cases: functional, cell-based, Homo sapiens
D-247MG = details: Homo sapiens, D-247MG
Description: SANGER: Inhibition of human D-247MG cell growth in a cell viability assay.

DJM-1 = details: Homo sapiens, DJM-1;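 further: growth inhibition of human DJM-1 cells, read out by a cell viability assay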
Description: SANGER: Inhibition of human DJM-1 cell growth in a cell viability assay.

DU-4475 = details: Homo sapiens, DU-4475
Description: SANGER: Inhibition of human DU-4475 cell growth in a cell viability assay.

EW-1 = details: Homo sapiens, EW-1
Description: SANGER: Inhibition of human EW-1 cell growth in a cell viability assay.

EW-18 = details: Homo sapiens, EW-18;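 further: growth inhibition of EW-18 cells, read out by a cell viability assay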
Description: SANGER: Inhibition of human EW-18 cell growth in a cell viability assay.

GAK = details: Homo sapiens, GAK;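 further: cell growth inhibition read out by a cell viability assay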
Description: SANGER: Inhibition of human GAK cell growth in a cell viability assay.

GB-1 = details: Homo sapiens, GB-1;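 further: growth of GB-1 cells judged by a viability assay, IC50 marks the concentration inhibiting growth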
Description: SANGER: Inhibition of human GB-1 cell growth in a cell viability assay.

HCC 2998 = details: Homo sapiens, HCC 2998;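 further: growth inhibition of human HCC2998 cells, measured with a cell viability read-out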
Description: SANGER: Inhibition of human HCC2998 cell growth in a cell viability assay.

HDLM-2 = details: Homo sapiens, HDLM-2;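 further: cell viability assay measuring suppression of HDLM-2 proliferation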
Description: SANGER: Inhibition of human HDLM-2 cell growth in a cell viability assay.

IST-MEL1 = details: Homo sapiens, IST-MEL1;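 further: growth inhibition of the cell line, read out with a cell viability assay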
Description: SANGER: Inhibition of human IST-MEL1 cell growth in a cell viability assay.

K562 = details: Homo sapiens, K562
Description: SANGER: Inhibition of human K-562 cell growth in a cell viability assay.

KALS-1 = details: Homo sapiens, KALS-1;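 further: growth inhibition of KALS-1 cells, determined with a cell viability assay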
Description: SANGER: Inhibition of human KALS-1 cell growth in a cell viability assay.

KINGS-1 = details: Homo sapiens, KINGS-1;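 further: cell viability assay measuring suppression of KINGS-1 cell growth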
Description: SANGER: Inhibition of human KINGS-1 cell growth in a cell viability assay.

L-363 = details: Homo sapiens, L-363
Description: SANGER: Inhibition of human L-363 cell growth in a cell viability assay.

LOX IMVI = details: Homo sapiens, LOX IMVI
Description: SANGER: Inhibition of human LOXIMVI cell growth in a cell viability assay.

LS-123 = details: Homo sapiens, LS-123
Description: SANGER: Inhibition of human LS-123 cell growth in a cell viability assay.

MOLT-4 = details: Homo sapiens, MOLT-4;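 further: growth inhibition of MOLT-4 cells, determined with a cell viability readout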
Description: SANGER: Inhibition of human MOLT-4 cell growth in a cell viability assay.

MS-1 = details: Homo sapiens, MS-1;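 further: growth inhibition of MS-1 cells, read out by cell viability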
Description: SANGER: Inhibition of human MS-1 cell growth in a cell viability assay.

Mo = details: Homo sapiens, Mo
Description: SANGER: Inhibition of human Mo-T cell growth in a cell viability assay.

NB10 = details: Homo sapiens, NB10;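 further: growth inhibition of NB10 cells, read out by a cell viability assay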
Description: SANGER: Inhibition of human NB10 cell growth in a cell viability assay.

NB17 = details: Homo sapiens, NB17;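 further: growth inhibition of NB17 cells, read out with a cell viability assay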
Description: SANGER: Inhibition of human NB17 cell growth in a cell viability assay.

NCI-H1299 = details: Homo sapiens, NCI-H1299;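 further: growth inhibition of human NCI-H1299 cells, read out by a cell viability assay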
Description: SANGER: Inhibition of human NCI-H1299 cell growth in a cell viability assay.

NCI-H1304 = details: Homo sapiens, NCI-H1304;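 further: growth inhibition of the cancer cell line, measured in a cell viability assay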
Description: SANGER: Inhibition of human NCI-H1304 cell growth in a cell viability assay.

NCI-H1581 = details: Homo sapiens, NCI-H1581;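 further: cell growth inhibition read out by a viability assay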
Description: SANGER: Inhibition of human NCI-H1581 cell growth in a cell viability assay.

NCI-H1770 = details: Homo sapiens, NCI-H1770;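 further: growth inhibition of NCI-H1770 cells determined with a viability readout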
Description: SANGER: Inhibition of human NCI-H1770 cell growth in a cell viability assay.

NCI-H526 = details: Homo sapiens, NCI-H526;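 further: growth inhibition of the human NCI-H526 cell line, measured by a cell viability assay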
Description: SANGER: Inhibition of human NCI-H526 cell growth in a cell viability assay.

OCI-AML2 = details: Homo sapiens, OCI-AML2;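 further: growth inhibition of OCI-AML2 cells, read out with a cell viability assay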
Description: SANGER: Inhibition of human OCI-AML2 cell growth in a cell viability assay.

OCUB-M = details: Homo sapiens, OCUB-M;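 further: growth inhibition of the cancer cell line, read out through a cell viability assay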
Description: SANGER: Inhibition of human OCUB-M cell growth in a cell viability assay.

OVCAR-4 = details: Homo sapiens, OVCAR-4;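 further: growth inhibition of human OVCAR-4 cells, measured with a cell viability assay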
Description: SANGER: Inhibition of human OVCAR-4 cell growth in a cell viability assay.

PSN1 = details: Homo sapiens, PSN1;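 further: suppression of growth of human PSN1 cells, read out by a cell viability assay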
Description: SANGER: Inhibition of human PSN1 cell growth in a cell viability assay.

RH-1 = details: Homo sapiens, RH-1;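 further: growth inhibition of human RH-1 cells, read out with a cell viability assay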
Description: SANGER: Inhibition of human RH-1 cell growth in a cell viability assay.

RPMI-8226 = details: Homo sapiens, RPMI-8226
Description: SANGER: Inhibition of human RPMI-8226 cell growth in a cell viability assay.

RPMI-8866 = details: Homo sapiens, RPMI-8866
Description: SANGER: Inhibition of human RPMI-8866 cell growth in a cell viability assay.

RXF 393 = details: Homo sapiens, RXF 393;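 further: growth inhibition of human RXF 393 cells, read out with a cell viability assay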
Description: SANGER: Inhibition of human RXF393 cell growth in a cell viability assay.

Ramos-2G6-4C10 = details: Homo sapiens, Ramos-2G6-4C10;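 further: growth inhibition of the cell line, measured by a cell viability read-out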
Description: SANGER: Inhibition of human Ramos-2G6-4C10 cell growth in a cell viability assay.

SCC-15 = details: Homo sapiens, SCC-15;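 further: growth inhibition of SCC-15 cells, read out with a cell viability assay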
Description: SANGER: Inhibition of human SCC-15 cell growth in a cell viability assay.

SCH = details: Homo sapiens, SCH;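 further: growth inhibition of human SCH cells, read out in a cell viability assay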
Description: SANGER: Inhibition of human SCH cell growth in a cell viability assay.

SF-268 = details: Homo sapiens, SF-268;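 further: growth inhibition of SF-268 cells determined with a cell viability assay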
Description: SANGER: Inhibition of human SF268 cell growth in a cell viability assay.

SK-MEL-2 = details: Homo sapiens, SK-MEL-2;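 further: growth inhibition of human SK-MEL-2 cells measured with a cell viability assay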
Description: SANGER: Inhibition of human SK-MEL-2 cell growth in a cell viability assay.

SW 954 = details: Homo sapiens, SW 954;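 further: growth inhibition of SW954 human cancer cells, read out as cell viability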
Description: SANGER: Inhibition of human SW954 cell growth in a cell viability assay.

SW982 = details: Homo sapiens, SW982;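 further: growth inhibition of SW982 cells, read out with a cell viability assay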
Description: SANGER: Inhibition of human SW982 cell growth in a cell viability assay.

BV-173 = details: Homo sapiens, BV-173
Description: SANGER: Inhibition of human BV-173 cell growth in a cell viability assay.

TE-6 = details: Homo sapiens, TE-6;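 further: growth inhibition of TE-6 cells, read out with a cell viability assay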
Description: SANGER: Inhibition of human TE-6 cell growth in a cell viability assay.

TGBC24TKB = details: Homo sapiens, TGBC24TKB;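 further: growth inhibition of human TGBC24TKB cells, read out with a cell viability assay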
Description: SANGER: Inhibition of human TGBC24TKB cell growth in a cell viability assay.

U-266 = details: Homo sapiens, U-266
Description: SANGER: Inhibition of human U-266 cell growth in a cell viability assay.

UACC-257 = details: Homo sapiens, UACC-257
Description: SANGER: Inhibition of human UACC-257 cell growth in a cell viability assay.

no-11 = details: Homo sapiens;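 further: growth inhibition of human NO-11 cells, read out with a cell viability assay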
Description: SANGER: Inhibition of human no-11 cell growth in a cell viability assay.

CGTH-W-1 = details: Homo sapiens, CGTH-W-1;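 further: growth inhibition of human CGTH-W-1 cells measured by cell viability assay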
Description: SANGER: Inhibition of human CGTH-W-1 cell growth in a cell viability assay.

Structure (SMILES): COc1cc2c(Nc3ccc(NC(=O)c4ccccc4)cc3)ncnc2cc1OCCCN1CCOCC1
- IC50 (D-247MG): > 4000 nM
- IC50 (DJM-1): > 4000 nM
- IC50 (DU-4475): > 4000 nM
- IC50 (EW-1): > 4000 nM
- IC50 (EW-18): > 4000 nM
- IC50 (GAK): > 4000 nM
- IC50 (GB-1): > 4000 nM
- IC50 (HCC 2998): > 4000 nM
- IC50 (HDLM-2): > 4000 nM
- IC50 (IST-MEL1): > 4000 nM
- IC50 (K562): > 4000 nM
- IC50 (KALS-1): > 4000 nM
- IC50 (KINGS-1): > 4000 nM
- IC50 (L-363): 1950 nM
- IC50 (LOX IMVI): > 4000 nM
- IC50 (LS-123): > 4000 nM
- IC50 (MOLT-4): 900 nM
- IC50 (MS-1): > 4000 nM
- IC50 (Mo): > 4000 nM
- IC50 (NB10): > 4000 nM
- IC50 (NB17): > 4000 nM
- IC50 (NCI-H1299): > 4000 nM
- IC50 (NCI-H1304): > 4000 nM
- IC50 (NCI-H1581): 1680 nM
- IC50 (NCI-H1770): > 4000 nM
- IC50 (NCI-H526): > 4000 nM
- IC50 (OCI-AML2): 3680 nM
- IC50 (OCUB-M): 2250 nM
- IC50 (OVCAR-4): > 4000 nM
- IC50 (PSN1): > 4000 nM
- IC50 (RH-1): > 4000 nM
- IC50 (RPMI-8226): > 4000 nM
- IC50 (RPMI-8866): > 4000 nM
- IC50 (RXF 393): 3490 nM
- IC50 (Ramos-2G6-4C10): 1410 nM
- IC50 (SCC-15): 3730 nM
- IC50 (SCH): > 4000 nM
- IC50 (SF-268): > 4000 nM
- IC50 (SK-MEL-2): > 4000 nM
- IC50 (SW 954): 836 nM
- IC50 (SW982): > 4000 nM
- IC50 (BV-173): 1760 nM
- IC50 (TE-6): > 4000 nM
- IC50 (TGBC24TKB): > 4000 nM
- IC50 (U-266): 2840 nM
- IC50 (UACC-257): > 4000 nM
- IC50 (no-11): > 4000 nM
- IC50 (CGTH-W-1): 2620 nM

Structure (SMILES): CC(C)CCN1c2nc(Nc3cc(F)c(O)c(F)c3)ncc2N(C)C(=O)C1C (centres undefined)
- IC50 (D-247MG): > 5000 nM
- IC50 (DJM-1): 4800 nM
- IC50 (DU-4475): 504 nM
- IC50 (EW-1): 2750 nM
- IC50 (EW-18): 622 nM
- IC50 (GAK): > 5000 nM
- IC50 (GB-1): > 5000 nM
- IC50 (HCC 2998): > 5000 nM
- IC50 (HDLM-2): > 5000 nM
- IC50 (IST-MEL1): > 5000 nM
- IC50 (K562): > 5000 nM
- IC50 (KALS-1): > 5000 nM
- IC50 (KINGS-1): > 5000 nM
- IC50 (L-363): > 5000 nM
- IC50 (LOX IMVI): 2040 nM
- IC50 (LS-123): > 5000 nM
- IC50 (MOLT-4): 3390 nM
- IC50 (MS-1): > 5000 nM
- IC50 (Mo): > 5000 nM
- IC50 (NB10): 1780 nM
- IC50 (NB17): > 5000 nM
- IC50 (NCI-H1299): 2940 nM
- IC50 (NCI-H1304): > 5000 nM
- IC50 (NCI-H1581): > 5000 nM
- IC50 (NCI-H1770): > 5000 nM
- IC50 (NCI-H526): > 5000 nM
- IC50 (OCI-AML2): > 5000 nM
- IC50 (OCUB-M): > 5000 nM
- IC50 (OVCAR-4): > 5000 nM
- IC50 (PSN1): 3060 nM
- IC50 (RH-1): > 5000 nM
- IC50 (RPMI-8226): > 5000 nM
- IC50 (RPMI-8866): > 5000 nM
- IC50 (RXF 393): > 5000 nM
- IC50 (Ramos-2G6-4C10): 1700 nM
- IC50 (SCC-15): > 5000 nM
- IC50 (SCH): > 5000 nM
- IC50 (SF-268): 2870 nM
- IC50 (SK-MEL-2): > 5000 nM
- IC50 (SW 954): 2860 nM
- IC50 (SW982): > 5000 nM
- IC50 (BV-173): 1990 nM
- IC50 (TE-6): > 5000 nM
- IC50 (TGBC24TKB): > 5000 nM
- IC50 (U-266): 4610 nM
- IC50 (UACC-257): > 5000 nM
- IC50 (no-11): > 5000 nM
- IC50 (CGTH-W-1): 3940 nM

Structure (SMILES): CC1(C)CNc2cc(NC(=O)c3cccnc3NCc3ccncc3)ccc21 [MOTESANIB]
- IC50 (D-247MG): > 2000 nM
- IC50 (DJM-1): > 2000 nM
- IC50 (DU-4475): > 2000 nM
- IC50 (EW-1): > 2000 nM
- IC50 (EW-18): > 2000 nM
- IC50 (GAK): > 2000 nM
- IC50 (GB-1): > 2000 nM
- IC50 (HCC 2998): > 2000 nM
- IC50 (HDLM-2): > 2000 nM
- IC50 (IST-MEL1): > 2000 nM
- IC50 (K562): > 2000 nM
- IC50 (KALS-1): > 2000 nM
- IC50 (KINGS-1): > 2000 nM
- IC50 (L-363): > 2000 nM
- IC50 (LOX IMVI): > 2000 nM
- IC50 (LS-123): > 2000 nM
- IC50 (MOLT-4): > 2000 nM
- IC50 (MS-1): > 2000 nM
- IC50 (Mo): > 2000 nM
- IC50 (NB10): > 2000 nM
- IC50 (NB17): > 2000 nM
- IC50 (NCI-H1299): > 2000 nM
- IC50 (NCI-H1304): > 2000 nM
- IC50 (NCI-H1581): > 2000 nM
- IC50 (NCI-H1770): > 2000 nM
- IC50 (NCI-H526): > 2000 nM
- IC50 (OCI-AML2): > 2000 nM
- IC50 (OCUB-M): > 2000 nM
- IC50 (OVCAR-4): > 2000 nM
- IC50 (PSN1): > 2000 nM
- IC50 (RH-1): > 2000 nM
- IC50 (RPMI-8226): > 2000 nM
- IC50 (RPMI-8866): > 2000 nM
- IC50 (RXF 393): > 2000 nM
- IC50 (Ramos-2G6-4C10): > 2000 nM
- IC50 (SCC-15): > 2000 nM
- IC50 (SCH): > 2000 nM
- IC50 (SF-268): > 2000 nM
- IC50 (SK-MEL-2): > 2000 nM
- IC50 (SW 954): > 2000 nM
- IC50 (SW982): > 2000 nM
- IC50 (BV-173): > 2000 nM
- IC50 (TE-6): > 2000 nM
- IC50 (TGBC24TKB): > 2000 nM
- IC50 (U-266): > 2000 nM
- IC50 (UACC-257): > 2000 nM
- IC50 (no-11): > 2000 nM
- IC50 (CGTH-W-1): 670 nM
